Assay results published in publication PMC5878144 (Journal of controlled release : official journal of the …, 2018).
Read-outs that look alike come from different tables or passages of the source.

Assays:
[1] = Equilibrium dialysis of DcNP-associated versus free drug; assay type: physicochemical; settings: TLC-ART101, equilibrium dialysis, 6-8 kDa cut-off membrane
[2] = cited from earlier work
[3] = assay type: in vivo, Macaca nemestrina
[4] = Free ARV compartmental models; assay type: in vivo, Macaca nemestrina; settings: for CL/F: calculated from population PK parameters; for half-life / k el / Vd/F: male, monkey, sc
[5] = TLC-ART101 mechanism-based pharmacokinetic; settings: for k21, lymphatic entry rate constant, fast pathway / k31, lymphatic entry rate constant, intermediate pathway / k41, lymphatic entry rate constant, slow pathway / tlag2, lymphatic transit lag time, intermediate pathway / tlag1, lymphatic transit lag time, fast pathway / V5_DcNP, apparent volume of distribution of DcNP-associated ARV / k75, rate constant for release of free ARV from DcNPs in plasma / tlag3, lymphatic transit lag time, slow pathway: TLC-ART101; for k21, lymphatic entry rate constant, fast pathway / k31, lymphatic entry rate constant, intermediate pathway / k41, lymphatic entry rate constant, slow pathway: fixed after manual adjustment
in vivo = settings: macaque, sc
[6] = rat, in vivo; cited from earlier work
[7] = Free formulation, single SC dose, macaques, geometric mean (%CV), N=3
[8] = TLC-ART101, single SC dose, macaques, geometric mean (%CV), N=4
[9] = Free formulation, parameter value (%CV)
[10] = parameter value (%CV), listed as TLC-ART101 Ritonavir
[11] = TLC-ART101 model, free submodel, parameter value (%CV)
[12] = parameter value (%CV), listed as TLC-ART101 Tenofovir
[13] = TLC-ART101 model, free submodel

SMILES: Cc1cccc(C)c1OCC(=O)N[C@@H](Cc1ccccc1)[C@@H](O)C[C@H](Cc1ccccc1)NC(=O)[C@H](C(C)C)N1CCCNC1=O [Lopinavir]
- mean fraction of DcNP-associated drug [1]: 92.2%
- Terminal t1/2 ([2]; monkey, in vivo, sc): 476.94 (173) hr
- CL/F, apparent total clearance [3, 7]: 4.64 (14) L/[hr•kg]
- Terminal t1/2 ([3]; Free formulation, single SC dose, macaques, geometric mean (%CV), N=3, listed as Lopinavir (LPV)): 8.65 (28) hr
- CL/F, apparent total clearance [3, 8]: 0.85 (85) L/[hr•kg]
- AUC(0-t) ([3]; male, monkey, plasma, sc): 4350 ng·h/mL
- CL/F ([4]; Free formulation, listed as Free Lopinavir): 4.24 L/[hr•kg]
- CL/F ([4]; Free formulation, listed as LPV): ~4 L/[hr•kg]
- k21, absorption rate constant [4, 9]: 0.7120 (20) 1/hr
- half-life ([4]; plasma): 8.85 h
- k el ([4]; plasma): 2.18e-05 s⁻¹

SMILES: CC(C)c1nc(CN(C)C(=O)N[C@H](C(=O)N[C@@H](Cc2ccccc2)C[C@H](O)[C@H](Cc2ccccc2)NC(=O)OCc2cncs2)C(C)C)cs1 [Ritonavir]
- mean fraction of DcNP-associated drug [1]: 91.1%
- AUC0-336h, area under the plasma drug concentration-time curve [2, 8]: 4.80 (57) hr•μg/mL
- Terminal t1/2 [2, 8]: 44.06 (46) hr
- CL/F, apparent total clearance [3, 7]: 4.23 (15) L/[hr•kg]
- Terminal t1/2 ([3]; Free formulation, single SC dose, macaques, geometric mean (%CV), N=3, listed as Ritonavir (RTV)): 7.99 (38) hr
- CL/F, apparent total clearance [3, 8]: 1.43 (56) L/[hr•kg]
- AUC(0-t) ([3]; male, monkey, plasma, sc): 1370 ng·h/mL
- CL/F ([4]; Free formulation, listed as Free Ritonavir): 3.90 L/[hr•kg]
- CL/F ([4]; Free formulation, listed as RTV): ~4 L/[hr•kg]
- k21, absorption rate constant [4, 9]: 0.6242 (29) 1/hr
- Vd/F ([4]; plasma): 42.4 L/kg
- half-life ([4]; plasma): 7.54 h
- k el ([4]; plasma): 2.55e-05 s⁻¹
- k21, lymphatic entry rate constant, fast pathway [5]: 0.2361 (-) 1/hr
- k31, lymphatic entry rate constant, intermediate pathway [5]: 0.1881 (-) 1/hr
- k41, lymphatic entry rate constant, slow pathway [5]: 0.0198 (-) 1/hr
- tlag2, lymphatic transit lag time, intermediate pathway ([5]; parameter value (%CV)): 38.83 (13) hr
- tlag1, lymphatic transit lag time, fast pathway ([5]; parameter value (%CV), listed as RTV): ~2 h
- V5_DcNP, apparent volume of distribution of DcNP-associated ARV [5, 10]: 10.09 (27) L/kg
- k75, rate constant for release of free ARV from DcNPs in plasma [5, 10]: 0.4336 (5) 1/hr
- tlag1, lymphatic transit lag time, fast pathway [5, 10]: 2.13 (51) hr
- tlag3, lymphatic transit lag time, slow pathway [5, 10]: 181.87 (11) hr
- V7_Free [5, 11]: 67.94 (3) L/kg
- k07, clearance rate constant of free ARV from central compartment [5, 11]: 0.0962 (4) 1/hr
- Kp (in vivo): 7.4

SMILES: C[C@H](Cn1cnc2c(N)ncnc21)OCP(=O)(O)O [Tenofovir]
- mean fraction of DcNP-associated drug [1]: 11.2%
- Terminal t1/2 [2, 8]: 65.33 (11) hr
- AUC0-336h, area under the plasma drug concentration-time curve ([2]; in vivo, sc): 416.55 (15) hr•μg/mL
- CL/F, apparent total clearance [3, 7]: 0.72 (4) L/[hr•kg]
- MBRT0-24h, mean body residence time [3, 7]: 2.61 (12) hr
- CL/F, apparent total clearance [3, 8]: 0.02 (15) L/[hr•kg]
- MBRT0-336h, mean body residence time [3, 8]: 102.68 (7) hr
- MBRT0-24h fold shorter than those of free LPV and RTV ([3]; free formulation): ~5 fold
- plasma level as % of peak ([3]; free formulation, by 10 hr): ~1%
- AUC(0-t) ([3]; male, monkey, plasma, sc): 14400 ng·h/mL
- Tmax ([3]; male, monkey, plasma, sc): ~1 h
- half-life ([3]; male, monkey, plasma, sc, Terminal t1/2, Free formulation, single SC dose, macaques, geometric mean (%CV), N=3): 8.01 h
- k23, peripheral to central exchange rate constant ([4]; Free formulation, 2CM): 0.0738 (-) 1/hr
- Vβ/F ([4]; Free formulation, 2CM, secondary parameter): 8.65 L/kg
- k32, central to peripheral exchange rate constant ([4]; Free formulation, 2CM, parameter value (%CV)): 0.0298 (0) 1/hr
- CL/F ([4]; Free formulation): 0.60 L/[hr•kg]
- k21, absorption rate constant [4, 9]: 2.3423 (38) 1/hr
- k el ([4]; in vivo): 0.000164 s⁻¹
- Vd/F ([4]; in vivo, 10.6 mg/kg): 1.44 L/kg
- k21, lymphatic entry rate constant, fast pathway [5]: 0.1300 (-) 1/hr
- k31, lymphatic entry rate constant, intermediate pathway [5]: 0.1588 (-) 1/hr
- k41, lymphatic entry rate constant, slow pathway [5]: 0.1779 (-) 1/hr
- V5_DcNP, apparent volume of distribution of DcNP-associated ARV ([5]; parameter value (%CV)): 0.17 (22) L/kg
- tlag2, lymphatic transit lag time, intermediate pathway ([5]; parameter value (%CV)): 24.04 (19) hr
- tlag1, lymphatic transit lag time, fast pathway ([5]; parameter value (%CV), listed as TFV): 0.1 h
- k75, rate constant for release of free ARV from DcNPs in plasma [5, 12]: 0.0164 (15) 1/hr
- tlag1, lymphatic transit lag time, fast pathway [5, 12]: 0.10 (-) hr
- tlag3, lymphatic transit lag time, slow pathway [5, 12]: 122.06 (3) hr
- k76, absorption rate constant of free ARV from SC site [5, 13]: 1.4201 (-) 1/hr
- k87 [5, 13]: 0.0298 (-) 1/hr
- V7_Free [5, 11]: 1.66 (18) L/kg
- k07, clearance rate constant of free ARV from central compartment [5, 11]: 0.5824 (2) 1/hr
- k78 [5, 11]: 0.0738 (0) 1/hr
- Kp (in vivo): 3.01

SMILES: COc1cccc2c1C(=O)c1c(O)c3c(c(O)c1C2=O)C[C@@](O)(C(=O)CO)C[C@@H]3O[C@H]1C[C@H](N)[C@H](O)[C@H](C)O1 [doxorubicin]
- % of SC dose recovered in the blood [6]: 64-74%
- % of SC dose recovered in the lymph [6]: 0.063-2%

SMILES: CN(Cc1cnc2nc(N)nc(N)c2n1)c1ccc(C(=O)N[C@@H](CCC(=O)O)C(=O)O)cc1 [methotrexate]
- % of SC dose recovered in the blood [6]: 64-74%
- % of SC dose recovered in the lymph [6]: 0.063-2%
